Measurements as given in patent US9624214B2, “Amino-substituted imidazo[1,2-a]pyridinecarboxamides and their use” (BAYER PHARMA AKTIENGESELLSCHAFT, priority 2012, dated 2017).

Biological target: T1, recombinant guanylate cyclase reporter cell line (Rattus norvegicus, UniProt P19686+P20595)
T1 construct: expressed in transfected cells
T1 sequence (P20595 1-619): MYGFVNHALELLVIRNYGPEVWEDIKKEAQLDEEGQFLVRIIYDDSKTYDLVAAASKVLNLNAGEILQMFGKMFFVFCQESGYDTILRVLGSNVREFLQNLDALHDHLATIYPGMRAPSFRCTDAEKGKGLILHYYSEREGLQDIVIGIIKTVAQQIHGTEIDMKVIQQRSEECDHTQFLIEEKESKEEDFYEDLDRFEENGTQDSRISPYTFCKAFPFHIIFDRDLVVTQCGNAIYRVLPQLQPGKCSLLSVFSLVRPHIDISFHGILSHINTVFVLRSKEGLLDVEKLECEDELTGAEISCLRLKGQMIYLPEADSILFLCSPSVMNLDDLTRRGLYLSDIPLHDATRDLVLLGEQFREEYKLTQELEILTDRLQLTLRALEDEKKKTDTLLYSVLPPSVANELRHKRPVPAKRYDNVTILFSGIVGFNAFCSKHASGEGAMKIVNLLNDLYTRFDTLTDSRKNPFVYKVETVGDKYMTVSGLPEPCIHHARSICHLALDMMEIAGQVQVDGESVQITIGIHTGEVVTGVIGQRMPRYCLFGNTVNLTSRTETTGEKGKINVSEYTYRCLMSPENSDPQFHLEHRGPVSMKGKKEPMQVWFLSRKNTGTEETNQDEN
T1 sequence (P19686 1-690): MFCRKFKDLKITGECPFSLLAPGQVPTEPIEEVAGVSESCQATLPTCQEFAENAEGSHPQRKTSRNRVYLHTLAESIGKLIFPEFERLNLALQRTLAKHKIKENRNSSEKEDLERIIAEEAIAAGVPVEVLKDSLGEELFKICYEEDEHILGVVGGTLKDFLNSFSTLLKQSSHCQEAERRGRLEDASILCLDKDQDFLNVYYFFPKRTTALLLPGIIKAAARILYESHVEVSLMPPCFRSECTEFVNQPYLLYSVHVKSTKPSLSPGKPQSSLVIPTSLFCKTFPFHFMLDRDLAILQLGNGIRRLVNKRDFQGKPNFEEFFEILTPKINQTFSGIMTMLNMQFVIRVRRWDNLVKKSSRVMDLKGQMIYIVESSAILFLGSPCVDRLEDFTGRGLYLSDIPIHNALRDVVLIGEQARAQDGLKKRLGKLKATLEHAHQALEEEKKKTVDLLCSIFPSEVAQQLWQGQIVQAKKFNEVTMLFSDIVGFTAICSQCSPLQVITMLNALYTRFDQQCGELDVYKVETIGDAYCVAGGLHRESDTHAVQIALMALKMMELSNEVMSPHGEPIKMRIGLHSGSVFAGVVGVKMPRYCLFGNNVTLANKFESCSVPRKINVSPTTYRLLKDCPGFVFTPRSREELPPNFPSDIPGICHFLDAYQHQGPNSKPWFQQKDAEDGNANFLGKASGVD
Assay: B-2. Action on recombinant guanylate cyclase reporter cell line
Format: cell-based
Conditions: MEC = minimal effective concentration; in some cases mean values from individual determinations
Method in brief: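 Rat recombinant guanylate cyclase reporter cell line measures cellular activity. Value reported as MEC (minimal effective concentration), sometimes averaged over individual determinations.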

MEC | Structure (SMILES)
3.00 µM | Cc1cc(OCc2c(F)cccc2F)c2nc(C)c(C(=O)NCC(N)c3cccc(OC(F)(F)F)c3)n2c1 (racemic) [Example 377, rac-N-{2-amino-2-[3-(trifluoromethoxy)phenyl]ethyl}-8-[(2,6-difluorobenzyl)oxy]-2,6-dimethylimidazo[1,2-a]pyridine-3-carboxamide]
0.30 µM | COCC(C)(N)CNC(=O)c1c(C)nc2c(OCc3c(F)cccc3F)cc(C)cn12 (racemic) [Example 166, rac-N-(2-amino-3-methoxy-2-methylpropyl)-8-[(2,6-difluorobenzyl)oxy]-2,6-dimethylimidazo[1,2-a]pyridine-3-carboxamide]
0.1 µM | Cc1cc(OCc2c(F)cccc2F)c2nc(C)c(C(=O)NCC(C)(N)CF)n2c1 (single isomer, unassigned; enantiomer b) [Example 284, ent-N-(2-amino-3-fluoro-2-methylpropyl)-8-[(2,6-difluorobenzyl)oxy]-2,6-dimethylimidazo[1,2-a]pyridine-3-carboxamide (Enantiomer B)]
0.10 µM | Cc1cc(OCc2c(F)cccc2F)c2nc(C)c(C(=O)NC3CCNCC3(F)F)n2c1 (racemic) [Example 299, rac-8-[(2,6-difluorobenzyl)oxy]-N-(3,3-difluoropiperidin-4-yl)-2,6-dimethylimidazo[1,2-a]pyridine-3-carboxamide]
1.00 µM | Cc1nc2c(OCc3c(F)cccc3F)cc(Cl)cn2c1C(=O)NCCN [Example 36, N-(2-aminoethyl)-6-chloro-8-[(2,6-difluorobenzyl)oxy]-2-methylimidazo[1,2-a]-pyridine-3-carboxamide]
0.03 µM | Cc1nc2c(OCc3c(F)cccc3F)cccn2c1C(=O)NC1CCNc2ccccc21 (racemic) [Example 50, rac-8-[(2,6-Difluorobenzyl)oxy]-2-methyl-N-(1,2,3,4-tetrahydroquinolin-4-yl)imidazo[1,2-a]-pyridine-3-carboxamide]
3.00 µM | Cc1cc(OCc2c(F)cccc2F)c2nc(C)c(C(=O)NCC(N)c3cccc(OCCO)c3)n2c1 (racemic) [Example 367, rac-N-{2-amino-2-[3-(2-hydroxyethoxy)phenyl]ethyl}-8-[(2,6-difluorobenzyl)oxy]-2,6-dimethylimidazo[1,2-a]pyridine-3-carboxamide]
0.30 µM | Cc1cc(OCc2c(F)cccc2F)c2nc(C)c(C(=O)NCC3CCc4ccccc4N3)n2c1 (racemic) [Example 235, rac-8-[(2,6-Difluorobenzyl)oxy]-2,6-dimethyl-N-(1,2,3,4-tetrahydroquinolin-2-ylmethyl)imidazo-[1,2-a]pyridine-3-carboxamide]
0.10 µM | CCCC(C)(N)CNC(=O)c1c(C)nc2c(OCc3c(F)ccc(F)c3F)cc(C)cn12 (single isomer, unassigned) [Example 295, ent-N-(2-amino-2-methylpentyl)-2,6-dimethyl-8-[(2,3,6-trifluorobenzyl)oxy]imidazo[1,2-a]pyridine-3-carboxamide]
1.00 µM | Cc1nc2c(OCc3c(F)cccc3F)cc(Cl)cn2c1C(=O)NC1CNCc2ccccc21 (single isomer, unassigned; ent-6) [Example 108, ent-6-chloro-8-[(2,6-difluorobenzyl)oxy]-2-methyl-N-(1,2,3,4-tetrahydroisoquinolin-4-yl)imidazo[1,2-a]pyridine-3-carboxamide]
1.00 µM | COCC(C)(N)CNC(=O)c1c(C)nc2c(OCc3c(F)cccc3F)cc(Cl)cn12 (single isomer, unassigned) [Example 197, ent-N-(2-Amino-3-methoxy-2-methylpropyl)-6-chloro-8-[(2,6-difluorobenzyl)oxy]-2-methylimidazo[1,2-a]pyridine-3-carboxamide]
0.30 µM | Cc1nc2c(OCc3c(F)cccc3F)cccn2c1C(=O)NCC(N)CC(F)(F)F (single isomer, unassigned) [Example 126, ent-N-(2-Amino-4,4,4-trifluorobutyl)-8-[(2,6-difluorobenzyl)oxy]-2-methylimidazo[1,2-a]pyridine-3-carboxamide]
